The subject of the test is uPA mRNA. Put plainly: Northern blot of uPA mRNA in MCF-7 cells treated with demethylating agent (Example 6). It counts as cell-based, human. To be noted: 25 uM, ten days, vs vehicle alone. How it is done: Human breast cancer cells MCF-7 were maintained in culture and at 65% confluent cells were treated with vehicle alone (MCF-7) or 25 uM of the demethylating agent 5 azc (MCF-7+5azc) for ten days. MDA-231 cells were used as positive control (MDA-231) for uPA expression. At the end of this period 20 μg of cellular RNA from each group were electophoresed on a 1.1% agarose/formaldehyde gel and […] a ^32p labeled 18 S RNA probe. All blots (FIG. 1A) were quantified by densitometric scanning (FIG. 1B). Significant difference from control cells is represented by an asterisk (p<0.05).

Turning to `Nc1ncn([C@@H]2O[C@H](CO)[C@@H](O)[C@H]2O)c(=O)n1` [5-azc], the “uPA mRNA (Northern blot, densitometric scanning)” value was “marked induction”.

The values are drawn from patent publication US7316900B2, “Methylated nucleotide regulation of gene expression” (Quebepharma Recherche, Inc., priority 2000, dated 2008).
